Measurements as given in US20220074923A1, “METHODS OF IDENTIFYING PARKIN-MEDIATED MITOPHAGY ACTIVATING AGENTS” (THE GOVERNING COUNCIL OF THE UNIVERSITY OF TORONTO, priority 2018, published 2022).

Legend:
HEK293 GFP Parkin cells [1] = test: High throughput small molecule screen for Parkin recruitment to mitochondria (high content imaging); assay type: cell-based; conditions: for rank in the kinase inhibitor library screen (rank order by z-score): 4 μM, 16 h, then CCCP 2 h, rank out of 480, low rank = activator of Parkin recruitment, high rank = inhibitor; for % of cells with mitochondrial Parkin: CCCP only (DMSO pinned)
Protocol: 10 uL of 0.1 mg/mL Poly-D-Lys solution was added to 384-well plates for 5 minutes, followed by a PBS wash. Plates were dried for at least 2 hours. 50 μL of 600 000 HEK293 GFP Parkin cell/mL of DMEM was dispensed into each well. After 24 hours incubation to allow the cells to adhere, 200 nL of small molecules (or DMSO in columns 1, 2, 23 and 24) were pinned. Following a 16-hour incubation, 200 nL of 5 mM CCCP were added to all wells except columns 1 and 2, into which 200 nL of DMSO was added. Following 2-hour incubation, cells were fixed with 4% paraformaldehyde (PFA) and stained with 50 μL of 1 μg/mL DAPI solution for 15 minutes. After the final PBS wash, plates were ready for high content microscopy.
Images were acquired on IN Cell Analyzer 6000 (GE Healthcare), equipped with sCMOS camera (2048×2048), and 20x/0.45 NA Plan Fluor objective (Nikon) in open aperture mode using 1×1 binning. Image analysis was performed using Columbus Image Analysis System (PerkinElmer). Nuclei were initially detected in DAPI channel, followed by whole cell segmentation in GFP channel. Using PhenoLOGIC machine learning plug-in, cells were split into 2 sub-populations: cells with even GFP-Parkin distribution and cells where GFP-Parkin was localized to mitochondria. The percentage of cells with mitochondrial GFP-Parkin was determined per well. The molecules were then rank ordered based on z-score, which is calculated using the formula: […]
where x is the percentage of cells with mitochondrial GFP-Parkin for a specific small molecule, μ is the average percentage of cells with mitochondrial Parkin in positive control columns 23 and 24, where cells are treated with CCCP only.
These cell lines were screened across 2 biological replicates with compounds from the kinase inhibitor (n=480) and Prestwick (n=1120) collections. The 3-day screening protocol consisted of (1) seeding cells, (2) pinning small molecules at 4 μM concentration and (3) inducing mitophagy with CCCP, followed by processing of plates for high content imaging. Following image acquisition, DAPI staining was used to segment cells within each image. Supervised machine learning was used to classify cells into two classes: (1) cells with cytosolic Parkin distribution and (2) those with Parkin localized to mitochondria. […] Compounds which increased the proportion of class 2 cells across 2 biological replicates, compared to the CCCP-only treated cells (FIG. 10), as indicated by their z-score (FIG. 11), were considered hits.

[2] = system: HeLa cells expressing GFP Parkin WT and mito-dsRed; test: Parkin recruitment after Ac220 pre-treatment and CCCP; assay type: cell-based; conditions: Ac220 pre-treatment, 10 μM CCCP
Protocol: (§1) A) HeLa cells expressing GFP Parkin WT and mito-dsRed were treated with either DMSO, 10 μM CCCP or 4 μM Ac220 in combination with CCCP. B) Cell lysates from HeLa cells pre-treated with either DMSO or 4 μM Ac220 prior to addition of 10 μM CCCP were separated by SDS-PAGE and immunoblotting was performed against Mfn2 and actin. C) Cells were pre-treated with either DMSO, 2 μM Ac220, 1 μM Ac220 prior to addition of 10 μM CCCP. D) Cells were pre-treated with indicated concentrations of Ac220 prior to addition of 10 μM CCCP for 1 hour. Cell lysates were separated by SDS-PAGE and immunoblotting was performed against Mfn2 and actin. E) Densitometry analysis of Mfn2 levels normalized to loading control […]. Data is presented as mean±s.d. F) HeLa GFP Parkin cells were transfected with HA-PINK1 and pre-treated with either DMSO or Ac220 prior to addition of CCCP and Mg132. G) HeLa GFP Parkin cells and H) SH-SY5Y cells were pre-treated with either DMSO or Ac220 prior to addition of CCCP for the indicated time. Immunoblotting was performed using antibodies against PINK1 and actin.

HeLa cells [3] = test: Immunoblotting of Mfn2 degradation after Ac220 and CCCP; assay type: cell-based; conditions: Ac220 pre-treatment, 10 μM CCCP
Protocol: as §1
Lysates were harvested using lysis buffer (0.1M Tris HCl, 0.01% SDS, pH 9) with 1× protease inhibitor cocktail (BioShop, PIC002.1). […] 12% SDS-PAGE gels were used to run samples to be analyzed for LC3 conversation and for Tom20 and 10% gels were run for all other samples. […]

PINK1 = PINK1 accumulation after mitochondrial damage (immunoblot); assay type: cell-based; conditions: Ac220 pre-treatment, CCCP; HeLa GFP Parkin and SH-SY5Y cells
Protocol: as §1

[4] = system: HeLa cells stably expressing GFP parkin and mito-DsRed; test: Mitochondrial clearance assay; assay type: cell-based; conditions: pre-treated with DMSO, 24 hour 10 μM CCCP
Protocol: HeLa cells stably expressing GFP parkin and mito-DsRed were seeded into 12-well plates containing coverslips and allowed to adhere overnight. Cells were then treated with DMSO or 0.5 μM SR3677 for 2 hours prior to addition of 10 μM CCCP for 24 hours. Cells were then washed with PBS, fixed with 4% PFA and washed with PBS again prior to the mounting of coverslips onto glass slides. Mitochondrial clearance was quantified by counting the number of cells in each treatment to retain mito-DsRed signal. 3 independent trials were performed with at least 50 cells quantified per trial.

SH-SY5Y cells = test: Cell viability by crystal violet staining; assay type: cell-based; conditions: CCCP alone, 24 hours
Protocol: A) SH-SY5Y cells were pre-treated with either DMSO or 0.5 μM SR3677 prior to addition of either DMSO or 10 μM CCCP for 24 hours. Following treatment, cells were washed, fixed with 4% paraformaldehyde and stained with crystal violet dye. B) The OD at 550 nm was measured to assess crystal violet staining.
To determine whether these findings could be translated into dopaminergic neurons, the study was continued in the dopaminergic neuroblastoma SH-SY5Y cell line. Parkin undergoes a similar CCCP-dependent subcellular transition from cytosol to mitochondria in these cells^12. First, whether the viability of these cells would be improved by SR3677 was investigated. Initially, experiments were conducted using crystal violet staining as an indicator of cell viability. […] Next, SH-SY5Y cells were differentiated into a more neuron-like population according to protocols previously described^10 and ATP levels were measured. […] Varying concentrations of SR3677 were co-administered alongside the PD-causing toxin paraquat.

[5] = used in Japan; cited from earlier work
HEK293 GFP Parkin cells [6] = test: Parkin recruitment assay; assay type: cell-based
Protocol: HEK293 GFP Parkin cells were seeded into 12-well plates containing coverslips. Cells were treated with small molecules for 2 hours prior to mitophagy induction with 10 μM CCCP, unless indicated otherwise. Following fixation with 4% PFA, immunostaining was carried out using anti-ATP5A primary antibody and anti-mouse Alex Fluor 568.
To measure the percentage of cells with Parkin localized to mitochondria a 2 step process was employed: (1) whole cell segmentation based on GFP Parkin using CellProfiler software and (2) classification into Parkin distribution subpopulation using CellProfiler Analyst. The percentage of cells with Parkin localized to mitochondria was determined in each image. Images were taken at 20× magnification for this experiment, resulting in the classification of at least 300 cells in each treatment group per trial.

ROCK2 = ROCK2 (Homo sapiens, UniProt O75116); conditions: biochemical and cell-based assays, previous studies; cited from earlier work
Chain of ROCK2 (O75116 whole entry): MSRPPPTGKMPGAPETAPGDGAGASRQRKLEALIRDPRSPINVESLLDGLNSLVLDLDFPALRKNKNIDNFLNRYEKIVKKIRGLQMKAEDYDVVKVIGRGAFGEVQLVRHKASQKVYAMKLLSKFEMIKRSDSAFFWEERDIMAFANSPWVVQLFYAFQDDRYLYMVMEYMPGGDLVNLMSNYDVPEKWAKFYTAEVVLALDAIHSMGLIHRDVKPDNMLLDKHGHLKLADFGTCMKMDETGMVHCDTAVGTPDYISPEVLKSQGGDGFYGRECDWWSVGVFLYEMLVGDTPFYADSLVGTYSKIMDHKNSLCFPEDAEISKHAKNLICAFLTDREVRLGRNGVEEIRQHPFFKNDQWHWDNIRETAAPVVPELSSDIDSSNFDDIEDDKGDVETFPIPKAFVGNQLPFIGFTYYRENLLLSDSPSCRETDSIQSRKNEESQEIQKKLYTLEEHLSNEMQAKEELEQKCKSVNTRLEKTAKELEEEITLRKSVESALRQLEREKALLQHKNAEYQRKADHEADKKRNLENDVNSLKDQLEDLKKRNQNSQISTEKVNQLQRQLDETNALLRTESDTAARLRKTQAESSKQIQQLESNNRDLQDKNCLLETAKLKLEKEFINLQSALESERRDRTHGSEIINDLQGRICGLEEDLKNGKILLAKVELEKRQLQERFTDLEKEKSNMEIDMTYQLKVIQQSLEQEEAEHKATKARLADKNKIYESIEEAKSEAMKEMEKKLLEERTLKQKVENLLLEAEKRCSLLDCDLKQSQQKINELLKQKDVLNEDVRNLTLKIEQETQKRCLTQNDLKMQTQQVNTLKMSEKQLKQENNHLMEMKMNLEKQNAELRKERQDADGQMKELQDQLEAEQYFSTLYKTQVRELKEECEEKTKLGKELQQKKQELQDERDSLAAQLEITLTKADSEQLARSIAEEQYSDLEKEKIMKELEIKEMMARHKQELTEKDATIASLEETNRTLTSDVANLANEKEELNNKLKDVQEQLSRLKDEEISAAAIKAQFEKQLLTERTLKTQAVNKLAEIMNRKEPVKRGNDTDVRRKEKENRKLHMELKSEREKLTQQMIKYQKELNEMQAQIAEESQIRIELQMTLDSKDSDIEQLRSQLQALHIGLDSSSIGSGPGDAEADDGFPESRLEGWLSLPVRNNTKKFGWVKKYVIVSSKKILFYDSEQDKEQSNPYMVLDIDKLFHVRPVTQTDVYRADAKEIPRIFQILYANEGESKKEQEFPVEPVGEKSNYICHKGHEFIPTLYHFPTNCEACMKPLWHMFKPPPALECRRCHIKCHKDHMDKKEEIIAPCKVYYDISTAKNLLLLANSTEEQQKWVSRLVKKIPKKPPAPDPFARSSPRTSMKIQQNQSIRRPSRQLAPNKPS

ROCK1 = ROCK1 (Homo sapiens, UniProt Q13464); conditions: biochemical and cell-based assays, review; cited from earlier work
Chain of ROCK1 (Q13464 whole entry, species assumed): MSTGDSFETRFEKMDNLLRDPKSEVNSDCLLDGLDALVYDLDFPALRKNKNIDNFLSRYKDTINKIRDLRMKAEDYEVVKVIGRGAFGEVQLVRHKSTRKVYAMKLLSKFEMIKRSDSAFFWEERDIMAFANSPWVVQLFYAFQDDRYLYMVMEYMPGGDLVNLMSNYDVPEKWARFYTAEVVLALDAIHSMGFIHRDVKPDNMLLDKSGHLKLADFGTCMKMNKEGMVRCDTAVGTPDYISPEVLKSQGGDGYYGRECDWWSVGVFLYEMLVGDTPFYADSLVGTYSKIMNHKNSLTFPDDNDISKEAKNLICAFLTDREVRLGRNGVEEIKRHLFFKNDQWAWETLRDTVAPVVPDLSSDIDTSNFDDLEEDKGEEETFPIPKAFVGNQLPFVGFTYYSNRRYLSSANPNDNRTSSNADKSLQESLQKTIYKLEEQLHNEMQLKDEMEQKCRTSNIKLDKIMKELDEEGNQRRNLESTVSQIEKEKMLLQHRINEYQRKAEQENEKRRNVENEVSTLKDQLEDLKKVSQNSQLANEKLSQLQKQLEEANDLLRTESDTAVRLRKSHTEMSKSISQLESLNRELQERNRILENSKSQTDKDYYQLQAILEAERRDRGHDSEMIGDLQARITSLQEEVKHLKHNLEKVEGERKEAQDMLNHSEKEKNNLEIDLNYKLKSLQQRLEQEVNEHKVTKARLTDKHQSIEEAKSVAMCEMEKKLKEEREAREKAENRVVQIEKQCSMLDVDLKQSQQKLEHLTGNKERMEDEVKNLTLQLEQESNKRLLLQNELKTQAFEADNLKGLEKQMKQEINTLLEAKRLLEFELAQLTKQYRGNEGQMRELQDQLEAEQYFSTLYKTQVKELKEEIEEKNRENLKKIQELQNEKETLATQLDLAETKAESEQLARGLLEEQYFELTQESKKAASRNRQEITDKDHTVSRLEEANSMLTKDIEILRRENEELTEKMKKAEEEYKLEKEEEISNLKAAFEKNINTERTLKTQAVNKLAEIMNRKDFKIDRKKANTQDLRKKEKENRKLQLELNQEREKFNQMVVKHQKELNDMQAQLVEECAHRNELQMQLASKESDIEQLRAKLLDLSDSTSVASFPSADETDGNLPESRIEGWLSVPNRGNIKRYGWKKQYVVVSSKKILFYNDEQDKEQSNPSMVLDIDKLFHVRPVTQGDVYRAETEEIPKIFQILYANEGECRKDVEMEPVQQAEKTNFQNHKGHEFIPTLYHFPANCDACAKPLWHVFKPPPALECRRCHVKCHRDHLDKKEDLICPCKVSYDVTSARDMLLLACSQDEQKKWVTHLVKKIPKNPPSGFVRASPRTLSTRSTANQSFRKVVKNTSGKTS

[7] = cited from earlier work
HeLa cells [8] = test: Mito-QC assay (targeting of mitochondria to lysosomes); assay type: cell-based; conditions: 50 μM chloroquine 16 hours pre-treatment
Protocol: HeLa cells were seeded into 6-well plates containing glass coverslips and allowed to adhere overnight. Cells were co-transfected with RGOMP25 and Cerulean-Parkin plasmids 24 hours prior to treatments. E-64 and leupeptin were added along with either DMSO or 10 μM CCCP for 6 hours prior followed by a PBS wash, fixation with 4% PFA and a final PBS wash prior to mounting onto glass slides with Fluoromount.
Cells were treated with 50 μM chloroquine for 16 hours prior to addition of E64, leupeptin, SR3677 and CCCP in the indicated treatment group. For the in vivo mitoQC assays, 5 7-day old male TH-GAL4>UAS-mitoQC were placed into vials containing water (control), sublethal 1 mM paraquat, 1 mM SR3677 alone and in combination with paraquat for 7 days. […] Fly brains were mounted in VectaShield™ mounting medium for imaging using the Zeiss LSM700 confocal fluorescence microscope with 40× 1.4 NA Oil Plan-APOCRAMAT objective and the appropriate lasers and filter. […]
Quantification of the RG assay was done using Fiji software. […] A red/green fluorescence intensity ratio was determined for each pixel. Pixels were considered red-only if the red/green fluorescence ratio was greater than or equal to 1.5. The area of red-only pixels over the total non-background area was determined and averaged across 4 independent trials in which at least 20 cells were quantified per treatment.

CC(C)(C)c1cc(NC(=O)Nc2ccc(-c3cn4c(n3)sc3cc(OCCN5CCOCC5)ccc34)cc2)no1 [Ac220]
rank in the kinase inhibitor library screen (rank order by z-score) (HEK293 GFP Parkin cells [1]): 475/480
Parkin recruitment [2]: inhibited Parkin recruitment
degradation of Mfn2 (HeLa cells [3]): inhibited
PINK1 accumulation in response to mitochondrial damage (PINK1): fails to accumulate

N#CC(C#N)=NNc1cccc(Cl)c1 [CCCP, carbonyl cyanide m-chlorophenylhydrazone]
% of cells with mitochondrial Parkin (HEK293 GFP Parkin cells [1]; Prestwick library screen): 71.2±2.6%
% of cells with mitochondrial Parkin (HEK293 GFP Parkin cells [1]; kinase inhibitor library screen): 83.4±2.3%
% of cells that retained mito-DsRed [4]: 47.5±8.25%
crystal violet staining (SH-SY5Y cells): reduced the amount of staining

O=S(=O)(c1cccc2cnccc12)N1CCCNCC1 [Fasudil]
class in the screen (FIG. 1b) (HEK293 GFP Parkin cells [1]; ROCK inhibitors, 4 μM plus CCCP): Enhancers of Parkin recruitment
safety and efficacy in vasospasm following subarachnoid hemorrhage [5]: safety and efficacy

C[C@@H](N)[C@H]1CC[C@H](C(=O)Nc2ccncc2)CC1 [Y27632]
rank in the kinase inhibitor library screen (rank order by z-score) (HEK293 GFP Parkin cells [1]): 9/480
Parkin recruitment on re-test (HEK293 GFP Parkin cells [6]; 10 μM, 2-hour treatment, CCCP): recapitulated the effects observed following overnight incubation
Parkin distribution in the absence of CCCP (HEK293 GFP Parkin cells [6]; compound alone): diffuse
ROCK2 inhibition (ROCK2): sufficiently inhibit both ROCK1 and ROCK2
ROCK1 inhibition (ROCK1): sufficiently inhibit both ROCK1 and ROCK2
cell permeability [7]: poor cell permeability

CCN(CC)CCCC(C)Nc1ccnc2cc(Cl)ccc12 (centres unmarked) [chloroquine]
effect on SR3677-mediated enhancement of mitophagy (HeLa cells [8]): abrogates SR3677-mediated enhancement of mitophagy
